Where a name gives a salt, the structure may show the parent alone. Read-outs that look alike come from different tables or passages of the source.
How the values were obtained:
[1] = molecular target: mu-opioid receptor (MOR); details: cited from earlier work
[2] = test system: cloned human mu-opioid receptor; details: [35S]GTPγS functional assay; cited from earlier work
[3] = molecular target: T1, δ-opioid receptor (DOR) (Rattus norvegicus, UniProt P33533); assay: Opioid receptor binding, DOR ([3H]DADLE), rat brain homogenate; details: for DOR Binding, activity in exploratory binding assays: 100 nM concentration, displacement of radioligand
T1 construct: All assay tubes contained 100 μL homogenate suspension; from tissue; host or cells: whole rat brain excluding cerebellum, membrane homogenate
T1 sequence (P33533 whole entry): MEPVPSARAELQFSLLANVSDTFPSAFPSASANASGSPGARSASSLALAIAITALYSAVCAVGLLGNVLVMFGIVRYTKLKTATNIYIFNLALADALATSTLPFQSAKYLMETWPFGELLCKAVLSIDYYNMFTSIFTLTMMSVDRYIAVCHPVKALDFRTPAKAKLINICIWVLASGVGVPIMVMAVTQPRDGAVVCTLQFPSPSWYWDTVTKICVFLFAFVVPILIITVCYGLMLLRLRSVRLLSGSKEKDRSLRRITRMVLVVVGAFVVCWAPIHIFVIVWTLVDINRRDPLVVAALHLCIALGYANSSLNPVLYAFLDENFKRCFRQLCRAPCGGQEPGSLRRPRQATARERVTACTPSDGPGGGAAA

[4] = molecular target: T2, κ-opioid receptor (KOR) (Rattus norvegicus, UniProt P34975); assay: Opioid receptor binding, KOR ([3H]U69,593), rat brain homogenate; details: for KOR Binding, activity in exploratory binding assays: 100 nM concentration, displacement of radioligand; for Ki: [3H]U69,593, whole rat brains excluding cerebellum, read-out: KOR Binding (Ki ± SEM)
T2 construct: All assay tubes contained 100 μL homogenate suspension; from tissue; host or cells: whole rat brain excluding cerebellum, membrane homogenate
T2 sequence (P34975 whole entry): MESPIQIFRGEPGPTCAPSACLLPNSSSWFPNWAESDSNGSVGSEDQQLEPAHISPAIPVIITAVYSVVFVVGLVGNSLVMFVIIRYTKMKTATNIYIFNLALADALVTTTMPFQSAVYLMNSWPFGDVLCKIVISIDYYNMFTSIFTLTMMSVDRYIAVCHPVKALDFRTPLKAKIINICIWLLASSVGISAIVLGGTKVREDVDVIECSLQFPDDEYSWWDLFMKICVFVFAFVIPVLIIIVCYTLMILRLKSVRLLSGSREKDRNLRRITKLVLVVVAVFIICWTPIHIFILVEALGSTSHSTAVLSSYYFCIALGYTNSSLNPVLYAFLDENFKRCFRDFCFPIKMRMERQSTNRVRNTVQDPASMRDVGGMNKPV

[5] = molecular target: T3, μ-opioid receptor (MOR) (Rattus norvegicus, UniProt P33535); assay: Opioid receptor binding, MOR ([3H]DAMGO), rat brain homogenate; details: for MOR Binding, activity in exploratory binding assays: 100 nM concentration, displacement of radioligand; for Ki: [3H]DAMGO, whole rat brains excluding cerebellum, read-out: MOR Binding (Ki ± SEM)
T3 construct: All assay tubes contained 100 μL homogenate suspension; from tissue; host or cells: whole rat brain excluding cerebellum, membrane homogenate
T3 sequence (P33535 whole entry): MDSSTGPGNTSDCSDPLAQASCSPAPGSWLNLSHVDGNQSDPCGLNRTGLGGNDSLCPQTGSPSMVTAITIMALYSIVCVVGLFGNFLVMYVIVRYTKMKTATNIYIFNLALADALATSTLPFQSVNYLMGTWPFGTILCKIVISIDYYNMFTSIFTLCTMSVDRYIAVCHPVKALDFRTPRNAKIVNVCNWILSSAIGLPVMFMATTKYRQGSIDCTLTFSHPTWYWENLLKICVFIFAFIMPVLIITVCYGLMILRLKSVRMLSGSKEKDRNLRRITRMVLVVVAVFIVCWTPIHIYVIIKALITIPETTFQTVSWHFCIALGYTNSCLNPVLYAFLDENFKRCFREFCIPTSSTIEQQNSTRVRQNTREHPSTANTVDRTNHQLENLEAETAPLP

[6] = in vitro; details: human, microsomes
[7] = Microsomal metabolic stability, mouse liver microsomes; details: for Remaining (NCF = 60 min): MLM 0.5, no co-factor (no NADPH); for Remaining (T = 60 min): MLM 0.5, with NADPH
[8] = in vitro; details: mouse, microsomes
[9] = Microsomal metabolic stability, human liver microsomes; details: for Remaining (NCF = 60 min): HLM 0.5, no co-factor (no NADPH); for Remaining (T = 60 min): HLM 0.5, with NADPH
[10] = molecular target: T4, CYP2D6 (Homo sapiens, UniProt P10635); assay: P450 inhibition, human liver microsomal CYP2D6; format: in vitro ADME; details: human, human liver microsomes, read-out: 2D6 %Inhibition
T4 construct: selected human liver microsomal cytochrome P450 isozymes (CYP1A2, CYP2C9, CYP2C19, CYP2D6, and CYP3A); from tissue; host or cells: human liver microsomes
T4 sequence (P10635 whole entry): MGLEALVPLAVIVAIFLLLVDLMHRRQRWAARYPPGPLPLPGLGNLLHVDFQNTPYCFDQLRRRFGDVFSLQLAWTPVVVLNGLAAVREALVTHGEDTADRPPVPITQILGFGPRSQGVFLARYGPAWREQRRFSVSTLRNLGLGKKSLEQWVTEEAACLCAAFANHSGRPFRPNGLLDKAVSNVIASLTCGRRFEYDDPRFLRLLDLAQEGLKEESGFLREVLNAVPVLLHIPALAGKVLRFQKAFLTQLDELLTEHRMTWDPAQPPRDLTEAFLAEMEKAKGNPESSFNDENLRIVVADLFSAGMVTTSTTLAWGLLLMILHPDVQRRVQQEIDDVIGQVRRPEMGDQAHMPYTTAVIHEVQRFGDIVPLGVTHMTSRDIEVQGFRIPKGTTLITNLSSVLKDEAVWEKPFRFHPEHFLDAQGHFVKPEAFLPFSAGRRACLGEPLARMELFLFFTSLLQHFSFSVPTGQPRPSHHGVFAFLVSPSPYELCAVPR

[11] = molecular target: CYP2C9 (Homo sapiens, UniProt P11712); assay: P450 inhibition, human liver microsomal CYP2C9; details: microsomes
CYP2C9, sequence (P11712 whole entry): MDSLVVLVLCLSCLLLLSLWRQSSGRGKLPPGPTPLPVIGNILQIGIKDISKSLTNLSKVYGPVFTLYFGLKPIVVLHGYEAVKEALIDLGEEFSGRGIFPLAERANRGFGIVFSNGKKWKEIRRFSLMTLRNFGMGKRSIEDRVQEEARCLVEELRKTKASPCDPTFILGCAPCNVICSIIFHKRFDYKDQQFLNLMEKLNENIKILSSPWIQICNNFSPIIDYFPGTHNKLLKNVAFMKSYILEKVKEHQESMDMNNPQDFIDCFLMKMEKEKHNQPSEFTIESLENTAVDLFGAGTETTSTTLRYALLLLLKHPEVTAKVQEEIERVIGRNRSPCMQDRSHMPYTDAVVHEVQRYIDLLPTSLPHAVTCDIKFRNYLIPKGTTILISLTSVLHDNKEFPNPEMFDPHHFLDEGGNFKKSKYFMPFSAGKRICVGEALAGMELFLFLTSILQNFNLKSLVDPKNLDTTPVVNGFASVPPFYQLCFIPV

`Oc1cccc2c1O[C@@H]1CN(C[C@@H]3C[C@@H]3c3ccccc3)[C@@H]3CCC[C@]21C3` (as salt: HBr) [(-)-19, (3R,6aS,11aS)-2-(((1R,2S)-2-phenylcyclopropyl)methyl)-1,3,4,5,6,11a-hexahydro-2H-3,6a-methanobenzofuro[2,3-c]azocin-10-ol] gave a melting point of 193.3 to 198.3 °C.
With `Oc1cccc2c1O[C@@H]1CN(C[C@H]3C[C@@H]3c3ccccc3)[C@@H]3CCC[C@]21C3` (as salt: HCl) [(+)-16, (3R,6aS,11aS)-2-(((1S,2S)-2-Phenylcyclopropyl)methyl)-1,3,4,5,6,11a-hexahydro-2H-3,6a-methanobenzofuro[2,3-c]azocin-10-ol] the melting point was 246.6 to 251.6 °C.
In the case of `Oc1cccc2c1O[C@H]1CN(C[C@H]3C[C@@H]3c3ccccc3)[C@H]3CCC[C@@]21C3` (as salt: HCl) [(+)-17, (3S,6aR,11aR)-2-(((1S,2S)-2-Phenylcyclopropyl)methyl)-1,3,4,5,6,11a-hexahydro-2H-3,6a-methanobenzofuro[2,3-c]azocin-10-ol], the melting point is reported as 187.2 to 192.2 °C.
In the case of `Oc1cccc2c1O[C@@H]1CN(C[C@H]3C[C@H]3c3ccccc3)[C@@H]3CCC[C@]21C3` (as salt: HCl) [(+)-18, (3R,6aS,11aS)-2-(((1S,2R)-2-Phenylcyclopropyl)methyl)-1,3,4,5,6,11a-hexahydro-2H-3,6a-methanobenzofuro[2,3-c]azocin-10-ol], the melting point is reported as 204.4 to 208.5 °C.
Compound `Oc1cccc2c1O[C@H]1CN(C[C@H]3C[C@H]3c3ccccc3)[C@H]3CCC[C@@]21C3` (as salt: HCl) [(+)-19, (3S,6aR,11aR)-2-(((1S,2R)-2-Phenylcyclopropyl)methyl)-1,3,4,5,6,11a-hexahydro-2H-3,6a-methanobenzofuro[2,3-c]azocin-10-ol] has a melting point of 183.1 to 187.7 °C.
For `Oc1cccc2c1O[C@H]1CN(C[C@@H]3C[C@H]3c3ccccc3)[C@H]3CCC[C@@]21C3` (as salt: HCl) [(-)-16, (3S,6aR,11aR)-2-(((1R,2R)-2-Phenylcyclopropyl)methyl)-1,3,4,5,6,11a-hexahydro-2H-3,6a-methanobenzofuro[2,3-c]azocin-10-ol], the melting point was 252.7 to 256.5 °C.
Compound `Oc1cccc2c1O[C@@H]1CN(C[C@@H]3C[C@H]3c3ccccc3)[C@@H]3CCC[C@]21C3` (as salt: HCl) [(-)-17, (3R,6aS,11aS)-2-(((1R,2R)-2-Phenylcyclopropyl)methyl)-1,3,4,5,6,11a-hexahydro-2H-3,6a-methanobenzofuro[2,3-c]azocin-10-ol] has a melting point of 208.2 to 213.2 °C.
Compound `Oc1cccc2c1O[C@H]1CN(C[C@@H]3C[C@@H]3c3ccccc3)[C@H]3CCC[C@@]21C3` (as salt: HCl) [(-)-18, (3S,6aR,11aR)-2-(((1R,2S)-2-Phenylcyclopropyl)methyl)-1,3,4,5,6,11a-hexahydro-2H-3,6a-methanobenzofuro[2,3-c]azocin-10-ol] has a melting point of 193.9 to 198.5 °C.
For `Oc1cccc2c1OC1CN(CCc3ccccc3)C3CCCC21C3` (racemic) [(±)-1], the Ki ([1]; racemate, read-out: mu-opioid receptor affinity Ki) is given as 1.1 nM.
In the case of `Oc1cccc(C23CCCC(C2)N(CC2CC2c2ccccc2)CC3)c1` (single isomer, unassigned; (+)) [(+)-2], the “mu-opioid antagonist activity Ke” value [2] is listed as 0.17 nM and the Ki ([1]; N-substituted 5-phenylmorphans, read-out: affinity at MOR Ki) is listed as 3 nM.
For `Oc1cccc2c1O[C@@H]1CN(C[C@H]3C[C@@H]3c3ccccc3)[C@@H]3CCC[C@]21C3` [(+)-16, (3R,6aS,11aS)-2-(((1S,2S)-2-Phenylcyclopropyl)methyl)-1,3,4,5,6,11a-hexahydro-2H-3,6a-methanobenzofuro[2,3-c]azocin-10-ol], the “DOR Binding, activity in exploratory binding assays” value (shortened to “DOR Binding, activity”) [3] was “NT (NT = not tested—inactive (<50% activity at 100 nM concentration in exploratory binding assays (displaced less than half of radioligand))”, the “KOR Binding, activity in exploratory binding assays” value (from here on “KOR Binding, activity”) [4] was “NT (NT = not tested—inactive (<50% activity at 100 nM concentration in exploratory binding assays (displaced less than half of radioligand))” and the “MOR Binding, activity in exploratory binding assays” value (“MOR Binding, activity” below) [5] was “NT (NT = not tested—inactive (<50% activity at 100 nM concentration in exploratory binding assays (displaced less than half of radioligand))”.
With `Oc1cccc2c1O[C@@H]1CN(C[C@H]3C[C@H]3c3ccccc3)[C@@H]3CCC[C@]21C3` [(+)-18, (3R,6aS,11aS)-2-(((1S,2R)-2-Phenylcyclopropyl)methyl)-1,3,4,5,6,11a-hexahydro-2H-3,6a-methanobenzofuro[2,3-c]azocin-10-ol] the “DOR Binding, activity” value [3] was “NT (NT = not tested—inactive (<50% activity at 100 nM concentration in exploratory binding assays (displaced less than half of radioligand))”, the “KOR Binding, activity” value [4] was “NT (NT = not tested—inactive (<50% activity at 100 nM concentration in exploratory binding assays (displaced less than half of radioligand))” and the “MOR Binding, activity” value [5] was “NT (NT = not tested—inactive (<50% activity at 100 nM concentration in exploratory binding assays (displaced less than half of radioligand))”.
For `Oc1cccc2c1O[C@H]1CN(C[C@H]3C[C@H]3c3ccccc3)[C@H]3CCC[C@@]21C3` [(+)-19, (3S,6aR,11aR)-2-(((1S,2R)-2-Phenylcyclopropyl)methyl)-1,3,4,5,6,11a-hexahydro-2H-3,6a-methanobenzofuro[2,3-c]azocin-10-ol], the “DOR Binding, activity” value [3] was “NT (NT = not tested—inactive (<50% activity at 100 nM concentration in exploratory binding assays (displaced less than half of radioligand))”, the Ki [4] was 67.3 ± 7.9 nM and the Ki [5] was 52.4 ± 5.1 nM.
For `Oc1cccc2c1O[C@H]1CN(C[C@@H]3C[C@H]3c3ccccc3)[C@H]3CCC[C@@]21C3` [(-)-16, (3S,6aR,11aR)-2-(((1R,2R)-2-Phenylcyclopropyl)methyl)-1,3,4,5,6,11a-hexahydro-2H-3,6a-methanobenzofuro[2,3-c]azocin-10-ol], the “DOR Binding, activity” value [3] was “NT (NT = not tested—inactive (<50% activity at 100 nM concentration in exploratory binding assays (displaced less than half of radioligand))”, the “KOR Binding, activity” value [4] was “NT (NT = not tested—inactive (<50% activity at 100 nM concentration in exploratory binding assays (displaced less than half of radioligand))” and the Ki [5] was 109 ± 5.5 nM.
In the case of `Oc1cccc2c1O[C@@H]1CN(C[C@@H]3C[C@H]3c3ccccc3)[C@@H]3CCC[C@]21C3` [(-)-17, (3R,6aS,11aS)-2-(((1R,2R)-2-Phenylcyclopropyl)methyl)-1,3,4,5,6,11a-hexahydro-2H-3,6a-methanobenzofuro[2,3-c]azocin-10-ol], the “DOR Binding, activity” value [3] is reported as “NT (NT = not tested—inactive (<50% activity at 100 nM concentration in exploratory binding assays (displaced less than half of radioligand))”, the “KOR Binding, activity” value [4] is reported as “NT (NT = not tested—inactive (<50% activity at 100 nM concentration in exploratory binding assays (displaced less than half of radioligand))” and the “MOR Binding, activity” value [5] is reported as “NT (NT = not tested—inactive (<50% activity at 100 nM concentration in exploratory binding assays (displaced less than half of radioligand))”.
Work on `Oc1cccc2c1O[C@H]1CN(C[C@@H]3C[C@@H]3c3ccccc3)[C@H]3CCC[C@@]21C3` [(-)-18, (3S,6aR,11aR)-2-(((1R,2S)-2-Phenylcyclopropyl)methyl)-1,3,4,5,6,11a-hexahydro-2H-3,6a-methanobenzofuro[2,3-c]azocin-10-ol] yielded a Ki ([3]; [3H]DADLE, whole rat brains excluding cerebellum, read-out: DOR Binding (Ki ± SEM)) of 89 ± 13.4 nM and a Ki [4] of 109 ± 16 nM.
In the case of `Oc1cccc2c1O[C@@H]1CN(C[C@@H]3C[C@@H]3c3ccccc3)[C@@H]3CCC[C@]21C3` [(-)-19, (3R,6aS,11aS)-2-(((1R,2S)-2-phenylcyclopropyl)methyl)-1,3,4,5,6,11a-hexahydro-2H-3,6a-methanobenzofuro[2,3-c]azocin-10-ol], the “DOR Binding, activity” value [3] is reported as “NT (NT = not tested—inactive (<50% activity at 100 nM concentration in exploratory binding assays (displaced less than half of radioligand))”, the “KOR Binding, activity” value [4] is reported as “NT (NT = not tested—inactive (<50% activity at 100 nM concentration in exploratory binding assays (displaced less than half of radioligand))” and the “MOR Binding, activity” value [5] is reported as “NT (NT = not tested—inactive (<50% activity at 100 nM concentration in exploratory binding assays (displaced less than half of radioligand))”.
With `O=C(O)Cc1ccccc1Nc1c(Cl)cccc1Cl` [Diclofenac] the CLint scaled [6] was 162 mL/min/kg, the “Remaining (NCF = 60 min)” value [7] was 99.4% and the “Remaining (T = 60 min)” value [7] was 33.5%. The microsomal CLint [8] was 35.4 µL/min/mg, the “Remaining (NCF = 60 min)” value [9] was 95.1% and the “Remaining (T = 60 min)” value [9] was 0.4%.
Work on `C=C[C@H]1C[N@@]2CC[C@H]1C[C@@H]2[C@@H](O)c1ccnc2ccc(OC)cc12` [Quinidine, reference compound] yielded an inhibition at 10 µM [10] of 94.2%.
Compound `Nc1ccc(S(=O)(=O)Nc2ccnn2-c2ccccc2)cc1` [Sulfaphenazole] has an inhibition at 10 µM [11] of 85.2%.
In the case of `C[C@]12CC[C@H]3[C@@H](CCC4=CC(=O)CC[C@@]43C)[C@@H]1CC[C@@H]2O` [Testosterone], the CLint scaled [6] is reported as 96.4 mL/min/kg, the “Remaining (NCF = 60 min)” value [7] is reported as 97.1% and the “Remaining (T = 60 min)” value [7] is reported as 0.0%. The CLint scaled [8] was 1720 mL/min/kg, the half-life [8] was 3.2 min and the microsomal CLint [8] was 435 µL/min/mg. The “Remaining (NCF = 60 min)” value [9] was 86.7% and the “Remaining (T = 60 min)” value [9] was 3.9%.
